Assay results published in patent US5994356A, “Carboxylic acid derivatives, medicaments comprising these compounds, their use and processes for their production” (priority 1996, dated 1999).
Counter-ions that a name gives are not always drawn.

Tests used:
platelet aggregation = assay: Antithrombotic action: collagen-induced platelet aggregation in platelet-rich plasma (Born and Cross); format: cell-based; conditions: Homo sapiens, 10 min, platelet-rich plasma of healthy subjects, incubated 10 minutes at 37° C., 50% change in optical density, read-out: Inhibition of platelet aggregation EC50
Description: 2. Antithrombotic Action Methodology Platelet aggregation is measured according to the method of Born and Cross (J. Physiol. 170, 397 (1964)) in platelet-rich plasma of healthy subjects. To inhibit clotting, the blood is treated with sodium citrate 3.14% in the volume ratio 1:10. Collagen-induced Aggregation The course of the decrease in the optical density of the platelet suspension is measured photometrically and recorded after addition of the aggregation-inducing substance. From the angle of inclination of the density curve, the aggregation rate is deduced. The point on the curve at which the greatest light transmission is present serves for the calculation of the optical density. The amount of collagen is chosen to be as low as possible, but of course such that an irreversibly running reaction curve results. Commercially available collagen from Hormonchemie, Munich is used. Before the addition of collagen, the plasma is incubated at 37° C. with the substance for 10 minutes in each case. From the measured values obtained, an EC50 which relates to a 50% change in the optical density in the sense of an inhibition of aggregation is determined graphically.

human platelets = assay: Inhibition of the binding of ^3 H-BIBU 52 to human platelets (fibrinogen binding test); conditions: human platelets in plasma; ^3 H-BIBU 52 5 nM; room temperature, 20 minutes
Description: 1. Inhibition of the binding of ^3 H-BIBU 52 to Human Platelets
The free and bound ligand is separated by centrifugation and determined quantitatively by scintillation counting. From the measurements, the inhibition of ^3 H-BIBU 52 binding by the test substance is determined.
To do this, donor blood is taken from an antecubital vein and anticoagulated with trisodium citrate (final concentration 13 mM). The blood is centrifuged at 170×g for 10 minutes and the supernatant platelet-rich plasma (PRP) is removed. The residual blood is rapidly centrifuged once more to obtain plasma. The PRP is diluted 1:10 with autologous plasma. 750 μl are incubated with […] of physiological saline solution, 100 μl of test substance solution, 50 μl of ^14 C-sucrose (3700 Bq) and 50 μl of ^3 H-BIBU 52 (final concentration: 5 nM) at room temperature for 20 minutes. To measure the non-specific binding, instead of the test substance, 100 μl of BIBU 52 (final concentration: 30 μM) is employed. The samples are centrifuged at 10,000×g for 20 seconds and the supernatant is removed. 100 μl thereof are measured to determine the free ligand. The pellet is dissolved in 500 μl of 0.2N NaOH, and 450 μl are mixed with 2 ml of scintillator and 25 μl of 5N HCl and measured. The residual plasma still remaining in the pellet is determined from the ^14 C content, the bound ligand from the ^3 H measurement.

[1] = Plasma levels in Rhesus monkeys after oral administration; format: in vivo; conditions: 1 mg/kg

Structure (SMILES)	period of high plasma levels [1]	EC50 (platelet aggregation) [nM]	IC50 (human platelets) [nM]
O=C(O)COc1ccc(N2CCN(CCC3CCNCC3)CC2=O)cc1 [1(1), 1-(4-Carboxymethyloxyphenyl)-4-[2-(piperidin-4-yl)ethyl]piperazin-2-onedihydrochloride]		370	360
O=C(O)COc1ccc(N2CCN(CCC3CCNCC3)CC2)cc1OCC(=O)O [1(3), 1-[3,4-Di(carboxymethyloxy)phenyl]-4-[2-(piperidin-4-yl)ethyl]piperazine d ihydrochloride]		110	47
CC1CN(CCC2CCNCC2)CCN1c1ccc(OCC(=O)O)cc1 (stereo not drawn) [1(7), 1-(4-Carboxymethyloxyphenyl)-2-methyl-4-[2-(piperidin-4-yl)ethyl]piperazine dihydrochloride]		240	260
CN(CC1CCNCC1)[C@H]1CC[C@H](c2ccc(OCC(=O)O)cc2)CC1 [1(22), trans-1-(4-Carboxymethyloxyphenyl)-4-[(piperidin-4-yl)-N-methylmethylamino]cyclohexane dihydrochloride]		370	260
O=C(O)CO[C@H]1CC[C@H](N2CCN(CCC3CCNCC3)CC2=O)CC1 [7(1), 1-(trans-4-Carboxymethyloxycyclohexyl)-4-[2-(piperidin-4-yl)ethyl]piperazin-2-one]		250	200
O=C(O)C(Oc1ccc(N2CCN(CCC3CCNCC3)CC2)cc1)c1ccccc1 (stereo not drawn) [7(6), 1-[4-(1-Carboxybenzyloxy)phenyl]-4-[2-(piperidin-4-yl)ethyl]piperazine dihydrochloride]			150
CC(C)COC(=O)COc1ccc(N2CCN(CCC3CCNCC3)CC2)cc1OCC(=O)OCC(C)C [9(1), 1-[3,4-Di(isobutyloxycarbonylmethyloxy)phenyl]-4-[2-piperidin-4-yl)ethyl]piperazine dihydrochloride]	more than 8 hours		
O=C(O)COc1ccc(N2CCN(CCC3CCNCC3)CC2)cc1 [Example 1, 1-(4-Carboxymethyloxyphenyl)-4-[2-(piperidin-4-yl)ethyl]piperazine dihydrochloride]		120	150
CCOC(=O)COc1ccc(N2CCN(CCC3CCNCC3)CC2)cc1OCC(=O)OCC.Cl.Cl [Example 9, 1-[3,4-Di(ethoxycarbonylmethyloxy)phenyl]-4-[2-(piperidin-4-yl)ethyl]piperazine dihydrochloride]	more than 8 hours		

The next lines start with results.

period of high plasma levels [1]	Structure (SMILES)	EC50 (platelet aggregation) [nM]	IC50 (human platelets) [nM]
more than 8 hours	COC(=O)COc1ccc(N2CCN(CCC3CCNCC3)CC2C)cc1.Cl.Cl (stereo not drawn) [2(4), 1-(4-Methoxycarbonylmethyloxyphenyl)-2-methyl-4-[2-(piperidin-4-yl)ethyl]piperazine dihydrochloride]		
more than 8 hours	Cl.Cl.O=C(COc1ccc(N2CCN(CCC3CCNCC3)CC2)cc1OCC(=O)OC1CCCCC1)OC1CCCCC1 [9(2), 1-[3,4-Di(cyclohexyloxycarbonylmethyloxy)phenyl]4-[2-(piperidin-4-yl)ethyl]piperazine dihydrochloride]		
more than 8 hours	COC(=O)COc1ccc(N2CCN(CCC3CCNCC3)CC2)cc1.Cl.Cl [Example 2, 1-(4-Methoxycarbonylmethyloxyphenyl)-4-[2-(piperidin-4-yl)ethyl]piperazine dihydrochloride]		
